We go through one compound from US20240156898A1, “METHODS AND COMPOSITIONS FOR TREATING OCULAR DISORDERS AND DISEASES” (ONL Therapeutics, Inc., priority 2021, published 2024).

Residues, ends and D or L forms follow the SMILES beside them.

For series [1] the following is noted: minipig, in vivo.
Description: Seven animals received a repeat IVT dose at 2 mg/mL (0.1 mg/eye) on Day 90. […] Vitreous humor, retina, and choroid were collected on days 1, 7, 14, 28, and 88.
Another series can be described thus: in vivo. The conditions noted are these: rabbit.
Series [2] is described as follows: Ocular tissue concentration of ONL1204 after intravitreal injection in rabbit eye (LC-MS/MS). The conditions noted are these: 0.1 mg/eye.
Description: (§1) Body weights were measured and recorded prior to first dose, approximately weekly (for surviving animals through Week 12), and prior to euthanasia. […] Ophthalmic examinations were performed using the Hackett-McDonald Scoring System on Days 0, 7, 14, 28, 90, 97, 151, and 168. Pharmacokinetic analyses were performed on the vitreous humor concentration data.
(§2) Seven animals received a repeat IVT dose at 2 mg/mL (0.1 mg/eye) on Day 90.
(§3) Vitreous humor, retina, and choroid were collected on days 1, 7, 14, 28, 42, 61, 90, 97, 151, and 168. Eyes were enucleated, snap frozen using liquid nitrogen, and kept on dry ice or frozen at −80° C. until dissected for collection of aqueous humor, vitreous humor, retina, choroid, iris-ciliary body (ICB), and lens.
(§4) To homogenize ocular tissue samples, weighed amounts of control bovine vitreous humor, retina, and choroid were homogenized in USA scientific impact resistant microtubes containing 2.8 mm ceramic beads. Unknown rabbit vitreous humor, retina, and choroid samples were homogenized in USA scientific impact resistant microtubes containing 2.8 mm ceramic beads. Each vitreous humor sample was homogenized after the addition of 5000 microliters (uL) diluent (acetonitrile: water: 1 M hydrochloric acid (70:20:10, v/v/v). Retina tissues were homogenized after the addition of diluent (IPA:NH4OH (1000:1, v/v)) at a 1:5 ratio (parts tissue to parts diluent), and choroid samples were homogenized following addition of diluent at a 1:19 ratio. Tissues were homogenized at 5500 rpm for 3×30 second cycles with 20 second pauses between cycles until homogenized. Choroid went through two runs of homogenization, and retina and vitreous humor samples went through one run of homogenization.
(§5) Preparation of Standards, Unknowns, Blanks, and Blanks with Internal Standard for Vitreous Humor Analysis: • In a polypropylene tube, 10 uL of working calibration standard was added to 90 uL control blank vitreous humor. For blanks and blanks with internal standard, 100 uL of control blank bovine vitreous humor was added. Five hundred (500) uL of acetonitrile: water:1M hydrochloric acid (70:20:10, v/v/v) was added to each standard and 500 uL of acetonitrile: water:1M hydrochloric acid (70:20:10, v/v/v) was added to blanks. Standards and blanks were vortex mixed. One hundred (100) uL of each standard, blank or unknown vitreous humor sample homogenate was then aliquoted. One hundred (100) uL of IPA:NH4OH (1000:1, v/v) was added to each sample. The samples were vortex mixed for 1 minute, then centrifuged for 10 minutes at 4,000 rpm (4° C.). […] Fifty (50.0) uL of acetonitrile:water:1M hydrochloric acid (70:20:10, v/v/v) was added to blank without IS. Two hundred (200) uL of water was added. The samples were then mixed using a multichannel pipette, and supernatant transferred to an autosampler plate for analysis.
(§6) In a 96-well plate, 100 uL of control retina or choroid homogenate was added for calibration samples and unknowns. For blanks and blanks with internal standard, 100 uL of control bovine retina or choroid tissue homogenate was added. […] Twenty (20) uL acetonitrile:water:formic acid (25:75:0.1, v/v/v) was added to each blank without IS sample. Three-hundred (300) uL of IPA:NH4OH (1000:1, v/v) was added to each choroid or retina sample. The samples were then vortex mixed for 5 minutes. The samples were allowed to set for 15 minutes, vortex mixed for an additional minute, and centrifuged for 10 minutes at 4,000 rpm (4° C.).
(§7) Three-hundred-fifty (350) uL of each sample was then aliquoted to a 96-well plate. The samples were dried with nitrogen at 35° C.
The subject of series [3] is retinal pigment epithelial cell death. Description: Sodium iodate (NaIO3) challenge study, duration of protection, fluorescein angiography lesion area. The note with it: rabbit.
Description: NaIO3 solution: • Challenge Article: NaIO3 • Administration Route: IV • Frequency of Administration: Day 4 (day 7 endpoint), 14 (day 17 endpoint), 28 (day 31 endpoint), 59 (day 61 endpoint), or 78 (day 81 endpoint (rechallenged group)). • Solution: 20 mg/ml in 0.9% Injectable Saline • Dose: 17 or 18 mg/kg body weight
Test System: • Species: Rabbit • Expected Age: Animals were between 3 and 4 months of age • Expected Body Range: Approximately 2.0 Kg, Identification Animals were individually • housed and identified via cage card and ear ID and/or ear tattoo. • Experimental History: Purpose-bred and experimentally naïve at the onset of the study
Intravitreal Injection: • On Day 0, eyes were anesthetized with proparacaine and pupils dilated with tropicamide. Animals were anesthetized with isoflurane vapors to effect. A few drops of Betadine were placed on the eye and then rinsed with ophthalmic eye wash. A clean speculum was placed in the eye (rinsed in Betadine and sterile saline) and the temporal sclera was marked with calipers 3.5 mm from the corneal border. […] In order to reduce the potential for reflux of the test article the needle remained in the vitreous for at least 10 seconds following injection. No reflux was noted on the dosing record.
Model Induction: • A 20 mg/ml solution of NaIO3 was prepared in 0.9% injectable saline aliquoted into 4 batches and frozen at −20° C. For Groups 1-8, 1 batch of NaIO3 was thawed prior to injection. Groups 9-10 were added after the Study was underway therefore a new solution of 20 mg/ml NaIO3 was prepared in 0.9% injectable saline and frozen at −20° C. and thawed prior to injection. Test article and NaIO3 were injected into the left ear.
Animals were weighed and anesthetized with isoflurane vapors to effect. The left ear was shaved and swabbed with 10% alcohol prior to injection. An indwelling catheter was placed in the left marginal ear vein and flushed with 0.9% injectable saline. […]
Data Analysis: • The area of RPE depigmentation is reported as a unitless value provided by the ImageJ software. […] The resulting area was then measured.

Description for in vivo: as §1, §2, §3, §4, §5, §6, §7

For `CC[C@H](C)[C@H](NC(=O)[C@H](Cc1ccc(O)cc1)NC(=O)[C@H](CC(N)=O)NC(=O)[C@@H](NC(=O)[C@H](C)NC(=O)CNC(=O)[C@H](CC(C)C)NC(=O)[C@H](Cc1ccc(O)cc1)NC(=O)[C@@H](NC(=O)[C@H](Cc1cnc[nH]1)NC(=O)[C@@H](N)Cc1cnc[nH]1)[C@@H](C)CC)C(C)C)C(=O)N[C@@H](Cc1ccc(O)cc1)C(N)=O` [ONL1204] (H-HHIYLGAVNYIY-NH2), the “detection in the vitreous humor across all time points analyzed” value in series [1] is listed as “detected in the vitreous humor across all time points analyzed”. For the same compound, the half-life – broadly, how long it takes for the measured level to halve – is 280 days in the series “in vivo” and 279 days in series [2] (vitreous humor, other: intravitreal injection). The compound also returned a tissue level at time at 4032 h in series [2] (retina) of 8.4 ng/g. This compound also registered a tissue level at time at 24 h in series [2] (retina, Conc. of ONL1204 Retina, single IVT 0.1 mg/eye, Day 1, LLOQ 3.00 ng/g) of 12.7 ng/g. Also, in series [2] (retina, Conc. of ONL1204 Retina, single IVT 0.1 mg/eye, Day 7, LLOQ 3.00 ng/g), the tissue level at time at 168 h turned out to be 85.2 ng/g. Moreover, the tissue level at time at 336 h in series [2] (retina, Conc. of ONL1204 Retina, single IVT 0.1 mg/eye, Day 14, LLOQ 3.00 ng/g) is 5.95 ng/g. The “lesion size vs negative controls and vs 25 ug” value in series [3] (100 ug per eye IVT on Day 0, NaIO3 challenge Day 14) is “significantly smaller lesion size”. In addition, the “lesion size vs negative control animals and vs 25 ug” value in series [3] (100 ug per eye IVT on Day 0, NaIO3 challenge Day 28) is listed as “significantly smaller lesion size”. Further, the “mean lesion size across challenge time points” value in series [3] (25 or 100 ug per eye IVT on Day 0, NaIO3 challenge Days 4 to 59) is “substantive reduction”.
